Like-named read-outs stand apart in the source and are kept apart here.
Key:
PD-1/PD-L1 [1] = molecular target: T1, PD-1/PD-L1 (Homo sapiens, UniProt Q9NZQ7); assay: Homogeneous time-resolved fluorescence (HTRF) PD-1/PD-L1 assay (CisBio kit); type: binding; set-up: Tag1 or Tag2 (kit's undisclosed tag); purchased CisBio; conditions: for remaining activity at 0.005 µM: 2 h, read-out: HTRF Fraction of the undissociated protein complex
Experimental: The certified CisBio kit was used to conduct the HTRF assay, adhering to the manufacturer’s guidelines. The assay setup comprised hPD-1, hPD-L1, anti-Tag1 tagged with Europium cryptate (HTRF donor), and anti-Tag2 tagged with XL665 (HTRF acceptor). The experiments utilized final concentrations of 5 nM hPD-L1 and 50 nM hPD-1 in a 20 μL total volume performed in triplicate. Per the CisBio instructions, all components were combined, the plate was incubated at ambient temperature for 2 h, and the TR-FRET (time-resolved fluorescence energy transfer) was carried out using the Tecan Spark 20M. The negatives in the acquired data were subtracted for background, the positives were standardized, and then the data were averaged.
of 50 mM of the compound. Samples were then diluted to 50 nM and used for measurements.
Target sequence in this assay (Q9NZQ7 19-238 limits assumed): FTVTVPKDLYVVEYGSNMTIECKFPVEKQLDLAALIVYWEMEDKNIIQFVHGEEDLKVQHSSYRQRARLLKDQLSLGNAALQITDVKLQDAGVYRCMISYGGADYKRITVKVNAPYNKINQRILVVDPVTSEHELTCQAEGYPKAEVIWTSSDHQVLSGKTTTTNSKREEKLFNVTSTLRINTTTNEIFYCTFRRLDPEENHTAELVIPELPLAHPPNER

PD-1/PD-L1 [2] = molecular target: T1, PD-1/PD-L1; assay: cell-based; set-up: host or cells: PD-L1+ aAPC/CHO-K1 cells; PD-1 effector Jurkat cells
Experimental: The PD-1/PD-L1 immune checkpoint bioassay (PD-1/PD-L1 Bioassay, Promega) was conducted according to the manufacturer’s protocol. PD-L1+ aAPC/CHO-K1 cells were seeded at a density of […] in 100 μL of medium [Ham’s F12, 10% fetal bovine serum (FBS)] in 96-well white flat-bottomed plates and incubated overnight at 37 °C in the presence of 5% CO2. The next day, the medium was removed, and serial dilutions of small molecule inhibitors were added at 40 μL per well in assay buffer (RPMI1640 + 1% FBS + 1% DMSO). […] The cells were cocultured for 6 h at 37 °C with 5% CO2 followed by a 5 min equilibration at room temperature. Bio-Glo Reagent (Promega) was prepared and added at 80 μL per well. After a 15 min incubation at room temperature, luminescence was measured using a Tecan Spark microplate reader. Data are presented as fold induction of luminescence relative to DMSO-treated cells. EC50 values were calculated using the log(inhibitor) vs response variable slope (four-parameter) analysis model with GraphPad Prism software.
Target sequence in this assay (Q9NZQ7 19-290): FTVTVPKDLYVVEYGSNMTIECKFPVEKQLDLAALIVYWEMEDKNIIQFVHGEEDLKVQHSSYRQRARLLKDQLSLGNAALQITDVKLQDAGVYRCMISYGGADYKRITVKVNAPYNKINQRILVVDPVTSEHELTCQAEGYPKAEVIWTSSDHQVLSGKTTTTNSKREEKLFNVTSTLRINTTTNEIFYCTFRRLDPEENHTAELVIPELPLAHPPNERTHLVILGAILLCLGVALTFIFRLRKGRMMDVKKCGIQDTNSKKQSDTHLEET

[3] = Solubility of the compounds (visual evaluation and A600 of dilutions); type: physicochemical; conditions: for A600 measurement (averaged from 2 reps): absorbance at 600 nm, 96-well plate, blank 0.0472, values in parentheses unreliable (precipitate); for solubility: kinetic from dmso stock, dilutions from DMSO stock, visually evaluated
Experimental: compound was 500 nM). The dilutions were then visually evaluated according to the following […]
+++ clear solution, no precipitation
++ slight turbidity, no precipitate
+ visible turbidity, no precipitate.
+/- strong turbidity, no precipitation.
- visible precipitation and/or visible precipitation in the original 100% DMSO solution.
The dilutions prepared in this way were applied to a 96-well plate and the absorbance measured […]
at a wavelength of 600 nm.
Table S2, Blank of 10 Measurements.
Table S2. Solubility of the compounds

hPD-L1 (human PD-L1) = molecular target: T2, hPD-L1 (human PD-L1) (Homo sapiens, UniProt Q9NZQ7); assay: 1H NMR titration with hPD-L1; type: binding; conditions: molar ratio protein to compound 1:1
T2 construct: The human PD-L1 IgV domain (residues 18–134, C-terminal His-tag) was expressed and purified; His-tag (C); made in house
T2 sequence (Q9NZQ7 18-134): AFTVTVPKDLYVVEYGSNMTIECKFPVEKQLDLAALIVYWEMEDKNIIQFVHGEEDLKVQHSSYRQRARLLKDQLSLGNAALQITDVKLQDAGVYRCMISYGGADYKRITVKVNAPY
Experimental: Representative molecules were evaluated for their interaction with PD-L1 by means of an ^1H NMR titration experiment.

hPD-1/hPD-L1 complex = molecular target: T3, hPD-1/hPD-L1 complex (Homo sapiens, UniProt Q9NZQ7); assay: PD-1/PD-L1 NMR-based antagonist-induced dissociation assay (AIDA); type: binding; conditions: complex of hPD-1/hPD-L1 with compound, 1:1 molar ratio protein to compound
T3 construct: The human PD-L1 IgV domain (residues 18–134, C-terminal His-tag) was expressed and purified; His-tag (C); made in house
T3 sequence (Q9NZQ7 18-134, one chain of several): as the sequence (Q9NZQ7 18-134) above
Experimental: In addition, we performed a PD-1/PD-L1 NMR-based antagonist-induced dissociation assay (AIDA).[42],[43] The AIDA assay was performed by adding a slight molar excess of PD-L1 to PD-1, which causes ^1H NMR signals to broaden corresponding to complex formation (Figure 2). […] However, in Figure 2 (purple), these are obscured by the sharper NMR signals of monomeric PD-1 released from the PD-L1/PD-1 complex.
Figure 2 NMR-based AIDA assay showing that a compound displaces PD-1 from PD-L1.

PD-1/PD-L1 [4] = molecular target: T1, PD-1/PD-L1; set-up: host or cells: PD-L1+ aAPC/CHO-K1 cells; PD-1 effector Jurkat cells; conditions: Figure S2B; ref Koblish et al.; cited from earlier work
Target sequence in this assay (Q9NZQ7 19-290): as the sequence (Q9NZQ7 19-290) above

[5] = at the 5 nM concentration of the inhibitor, 5 nM hPD-L1, 50 nM hPD-1
[6] = PD-L1+ aAPC/CHO-K1 cells cocultured 6 h with PD-1 effector Jurkat cells, read-out: PD-1/PD-L1 blockade, NFAT reporter bioassay EC50

SMILES: Cc1c(COc2cc(OCc3cccc(C#N)c3)c(CN3C[C@H](O)C[C@@H]3C(=O)O)cc2Cl)cccc1-c1ccc2c(c1)OCCO2 [BMS-1166, reference compound]
- HTRF Fraction of the undissociated protein complex (PD-1/PD-L1 [1]; [5]): 0.59

SMILES: Cc1c(NC(=O)c2ccc(CNCCO)cn2)cccc1-c1cccc(NC(=O)c2ccc(CNCCO)cn2)c1C [Cmpd A, reference compound]
- EC50 (PD-1/PD-L1 [2]; [6]): 14.7 nM
- remaining activity at 0.005 µM (PD-1/PD-L1 [1]; [5]): 18%

SMILES: Cc1c(NC(=O)c2ccc(CN[C@@H]3CCC[C@H]3O)cn2)cccc1-c1cccc(NC(=O)c2ccc(CN(C)CCO)cn2)c1C [Compound 1]
- A600 measurement (averaged from 2 reps) [3]: 0.5138
- solubility [3]: < 500 µM

SMILES: Cc1c(NC(=O)c2ccc(CN[C@@H](C)CO)cn2)cccc1-c1cccc(NC(=O)c2ccc(CN(C)CCO)cn2)c1C [Compound 2]
- A600 measurement (averaged from 2 reps) [3]: 0.4023
- solubility [3]: < 500 µM
- EC50 (PD-1/PD-L1 [2]; [6]): 21.8 nM
- IC50 (PD-1/PD-L1 [1]): 1.46 nM
- remaining activity at 0.005 µM (PD-1/PD-L1 [1]; [5]): 42%

SMILES: Cc1c(NC(=O)c2ccc(CN[C@@H](C)CO)cn2)cccc1-c1cccc(NC(=O)c2ccc(CN(C)CCO)cn2)c1C.Cl.Cl.Cl [Compound 2a]
- A600 measurement (averaged from 2 reps) [3]: 0.1517
- solubility [3]: < 500 µM
- EC50 (PD-1/PD-L1 [2]; [6]): 25 nM

SMILES: Cc1c(NC(=O)c2ccc(CNCCCO)cn2)cccc1-c1cccc(NC(=O)c2ccc(CN(CCO)CCO)cn2)c1C [Compound 3]
- A600 measurement (averaged from 2 reps) [3]: 0.2786
- solubility [3]: < 500 µM
- EC50 (PD-1/PD-L1 [2]): ~200 nM
- EC50 (PD-1/PD-L1 [2]; [6]): 251 nM

SMILES: Cc1c(NC(=O)c2ccc(CN[C@@H]3CCC[C@H]3O)cn2)cccc1-c1cccc(NC(=O)c2ccc(CN(CCO)CCO)cn2)c1C [Compound 4]
- A600 measurement (averaged from 2 reps) [3]: 0.2271
- solubility [3]: < 500 µM

SMILES: Cc1c(NC(=O)c2ccc(CNCCCO)cn2)cccc1-c1cccc(NC(=O)c2ccc(CN(C)C(CO)CO)cn2)c1C [Compound 5]
- A600 measurement (averaged from 2 reps) [3]: 0.04735
- solubility [3]: < 500 µM
- EC50 (PD-1/PD-L1 [2]): ~200 nM
- EC50 (PD-1/PD-L1 [2]; [6]): 110 nM

SMILES: COC(=O)[C@H](C)NCc1ccc(C(=O)Nc2cccc(-c3cccc(NC(=O)c4ccc(CN5CCCC5)cn4)c3C)c2C)nc1 [Compound 6]
- A600 measurement (averaged from 2 reps) [3]: 0.0627
- solubility [3]: < 500 µM

SMILES: Cc1c(NC(=O)c2ccc(CNCCCO)cn2)cccc1-c1cccc(NC(=O)c2ccc(CN(C)CCO)cn2)c1C [Compound 7]
- A600 measurement (averaged from 2 reps) [3]: 0.3466
- solubility [3]: < 500 µM

SMILES: Cc1c(NC(=O)c2ccc(CN(C)CCO)cn2)cccc1-c1cccc(NC(=O)c2ccc(CN(CCO)CCO)cn2)c1C [Compound 8]
- A600 measurement (averaged from 2 reps) [3]: 0.459
- solubility [3]: < 500 µM

SMILES: Cc1c(NC(=O)c2ccc(CNCCCO)cn2)cccc1-c1cccc(NC(=O)c2ccc(CN3CCC(O)CC3)cn2)c1C [Compound 9]
- A600 measurement (averaged from 2 reps) [3]: 0.09395
- solubility [3]: < 500 µM
- EC50 (PD-1/PD-L1 [2]): > 180 nM
- EC50 (PD-1/PD-L1 [2]; [6]): 188 nM
- remaining activity at 0.005 µM (PD-1/PD-L1 [1]; [5]): 26%

SMILES: Cc1c(NC(=O)c2ccc(CN[C@@H](C)CO)cn2)cccc1-c1cccc(NC(=O)c2ccc(CN3CCC(O)CC3)cn2)c1C [Compound 10]
- A600 measurement (averaged from 2 reps) [3]: 0.1308
- solubility [3]: < 500 µM
- EC50 (PD-1/PD-L1 [2]): > 180 nM
- EC50 (PD-1/PD-L1 [2]; [6]): 287 nM
- remaining activity at 0.005 µM (PD-1/PD-L1 [1]; [5]): 30%

SMILES: Cc1c(NC(=O)c2ccc(CN[C@@H]3CCC[C@H]3O)cn2)cccc1-c1cccc(NC(=O)c2ccc(CN3CCC(O)CC3)cn2)c1C [Compound 11]
- A600 measurement (averaged from 2 reps) [3]: 0.1117
- solubility [3]: < 500 µM
- EC50 (PD-1/PD-L1 [2]): > 180 nM
- EC50 (PD-1/PD-L1 [2]; [6]): 553 nM
- remaining activity at 0.005 µM (PD-1/PD-L1 [1]; [5]): 43%

SMILES: Cc1c(NC(=O)c2ccc(CNCCCO)cn2)cccc1-c1cccc(NC(=O)c2ccc(CN[C@@H]3CCC[C@H]3O)cn2)c1C [Compound 12]
- A600 measurement (averaged from 2 reps) [3]: 0.0476
- solubility [3]: > 500 µM

SMILES: Cc1c(NC(=O)c2ccc(CN[C@@H](C)CO)cn2)cccc1-c1cccc(NC(=O)c2ccc(CN[C@@H]3CCC[C@H]3O)cn2)c1C [Compound 13]
- A600 measurement (averaged from 2 reps) [3]: 0.1827
- solubility [3]: < 500 µM

SMILES: Cc1c(NC(=O)c2ccc(CNCCCO)cn2)cccc1-c1cccc(NC(=O)c2ccc(CN[C@@H](C)CO)cn2)c1C [Compound 14]
- A600 measurement (averaged from 2 reps) [3]: 0.05315
- solubility [3]: > 500 µM
- effect on hPD-L1 1H NMR lines (broadening) (hPD-L1 (human PD-L1)): oligomerization

SMILES: Cc1c(NC(=O)c2ccc(CNCCO)cn2)cccc1-c1cccc(NC(=O)c2ccc(CNCCNS(C)(=O)=O)cn2)c1C [Compound 16]
- A600 measurement (averaged from 2 reps) [3]: 0.0494
- solubility [3]: > 500 µM

SMILES: Cc1c(NC(=O)c2ccc(CNCCO)cn2)cccc1-c1cccc(NC(=O)c2ccc(CNCCCNS(C)(=O)=O)cn2)c1C [Compound 17]
- A600 measurement (averaged from 2 reps) [3]: 0.2217
- solubility [3]: < 500 µM
- EC50 (PD-1/PD-L1 [2]; [6]): 65.8 nM
- effect on hPD-L1 1H NMR lines (broadening) (hPD-L1 (human PD-L1)): oligomerization

SMILES: Cc1c(NC(=O)c2ccc(CNCCO)cn2)cccc1-c1cccc(NC(=O)c2ccc(CNCCCNS(C)(=O)=O)cn2)c1C.Cl.Cl.Cl.Cl [Compound 17a]
- AIDA rescue percentage of the PD-1 signal (hPD-1/hPD-L1 complex): 100%
- A600 measurement (averaged from 2 reps) [3]: 0.2848
- solubility [3]: < 500 µM
- EC50 (PD-1/PD-L1 [2]; [6]): 76.3 nM
- effect on hPD-L1 1H NMR lines (broadening) (hPD-L1 (human PD-L1)): oligomerization
- IC50 (PD-1/PD-L1 [1]): 3.06 nM
- dissociation of the PD-1/PD L1 complex (HTRF) (PD-1/PD-L1 [1]; 5 nM inhibitor concentration): 83%
- undissociated complex in the HTRF assay (PD-1/PD-L1 [1]; 5 nM inhibitor concentration): 17%

SMILES: Cc1c(Nc2nccc3cc(CN4CC[C@@H](O)C4)cnc23)cccc1-c1cccc(-c2nc3cc(CN4CC[C@@H](C(=O)O)C4)cc(C#N)c3o2)c1C [INCBO86550]
- EC50 (PD-1/PD-L1 [4]): 21.4 nM
